Counter-ions that a name gives are not always drawn.

One data set concerns Patient three. In words: Protocol and results with patient three (chronic fatigue). Particulars: for side effect noted by patient: combination reduced to Adipex-P 37.5 one-half, Celexa one-quarter, Aricept one-quarter, fenfluramine one-quarter pill q.a.m.; for patient-reported status: within two days, combination Adipex-P 37.5 mg one-half b.i.d. + Celexa 10 mg q.d. + fenfluramine 10 mg q.d. + Aricept one-half q.d. From the text: Longstanding patient in my practice who […] developed a viral illness followed by chronic fatigue. This problem persisted, numerous evaluations and consultations were obtained, in excess of 20 physicians were consulted, and the patient was followed for nine months in a major medical center with the diagnosis of chronic Lyme disease. Prior to this their symptoms included a compendium of mild lifelong autonomic dysfunction including chronic bladder and urethral problems which necessitated urological surgery in the distant past. They had not retired from work but had taken long leaves of absence and found it difficult to keep up their normal work schedule as a social worker, something they had done for many years. In the past for their autonomic dysfunction they had been placed on Depakote, Wellbutrin, and amitriptyline and they were on this when they became ill.
Their other medical problems included mitral valve prolapse with click and no murmur but no symptoms, a history of endometriosis, occasional kidney stones, and an ovarian cyst.
Therapy was begun on May 26, 1999. On Jun. […] They were still on 12.5 mg of Elavil or one-half pill and some minocin for acne, Wellbutrin from their psychiatrist, and Zithromax, an antibiotic started by other physicians for the treatment of Lyme disease. This is something that I advised them to discontinue, but they continued because of the concerns of the diagnosis.

Another data set relates to Patient five. In words: Protocol and results with patient five (severe obesity). It is filed as in vivo, human. The conditions noted are these: for body weight: December 1997, combination Ionamin 30 mg + fenfluramine 20 mg + Zoloft 25 mg q.d. since August 1995, start in excess of 350 lb; for body weight reported by phone: combination Adipex-P 37.5 mg one-half b.i.d. + Celexa 20 mg one-half MWF + Adalat 30 + Aricept + Nutrimed three times daily, from 264¼ lb. The source says: This person has been a patient in this practice for many years. Their medical problems are extremely long-lived and include chronic depression, severe obesity, hypertension, stasis dermatitis, and venous insufficiency of the lower extremities, and seborrhea.
In addition they were taking Lasix, Zaroxolyn and potassium for the control of their severe edema and leg pain. They were also using the CPAP machine.
At their insistence Meridia and Adalat were attempted. […] To augment the weight loss the patient was started on Nutrimed three times daily plus a regular dinner.

The test system of another data set is Patient four. The data set is described as follows: Protocol and results with patient four (morbid obesity, cardiomyopathy). It is filed as in vivo, human. The conditions noted are these: for cardiac index remeasured / body weight the next month: combination Adipex-P 37.5 one-half + Zoloft 25 mg + Aricept 1.25 mg + fenfluramine 5 mg (+ atenolol 12.5 mg); for body weight the next month: from 235 lb June 1999. The protocol: This person has been in the practice for several years. Their medical problems surround a cardiomyopathy with a low cardiac output state and heart failure. They also have a history of hypertension, hypothyroidism on therapy, and morbid obesity.
Medication alterations continued over the next several months with increasing Ionamin to 30 mg. Hytrin was added at 2 mg because of prostatic symptoms and in November Pondimin was added.
Adipex-P 37.5 one-half was added to their medications. […]

Data set [1] deals with Patient six. The data set is described as follows: Protocol and results with patient six, Example 10 (fibromyalgia, obesity). The data set is classed as in vivo, human. Particulars: for weight lost on therapy to date: Ionamin + fenfluramine (until 1996) + Zoloft from December 1995, Aricept from August 1998; for body weight: July 1999; for overall condition: over three years from December 1995, combination Ionamin 30 mg + fenfluramine 20 mg + Zoloft 25 mg, fenfluramine discontinued 1996. The source says:
This longstanding patient was first seen in 1988 for fibromyalgia. They are also bothered by chronic low back pain, mitral valve prolapse, sleep disturbance, a family history of coronary disease, and obesity. They are 5′8″ tall, 205½ lb. […] Their problem list contained the additional diagnoses of GERD, carpal tunnel syndrome, suspected mitral valve prolapse, and acne rosacea.
Their medication list included Synthroid, Estratest, Klonopin, Prilosec, Limbitrol, Provera, Premarin and Zostrix cream. […] They frequented health food stores, as well as chiropractors for relief.
Although greatly fearful of potential long-term problems, the patient finally agreed to the institution of a change in their medications and started therapy which was a major change in their medicines December 1995. […] At that time the patient's weight was in the mid 180s. Their other medications were continued.
This was an independent patient-initiated decision.

Another data set relates to Patient two. In words: Protocol and results with patient two (leg pain, absence of energy). It is filed as in vivo, human. The conditions noted are these: for body weight: August 1999, from 143 lb November 1998, Celexa 10 mg + Adipex-P 37.5 one-half (+ atenolol 25 mg), later with Aricept 1.25 mg three times weekly; for weight reduction / leg aches: Celexa + Adipex-P + Aricept (atenolol at first); for weight reduction: November 1998 to August 1999; for leg aches: by August 1999. The protocol:
First evaluated this 5′4″, ectomorphic, single person who was […] at the time.
On Nov. […] They were started on Celexa 10 mg, Adipex-P 37.5 one-half tablet, and atenolol 25 mg all in the morning.
They will keep in touch with me as they will take each instruction for four doses and then go to the next.

Data set [2] relates to Patient six. In words: Protocol and results with patient six, Example 12 (thalamic pain syndrome, ethanol use). The conditions noted are these: for body weight change: approximately five weeks into therapy, combination Adipex-P + fenfluramine + Celexa + Nutrimed; for energy level / pain as described by patient: combination Adipex-P 37.5 one-half b.i.d. + fenfluramine 10 mg + Celexa 10 mg + Nutrimed three times daily (+ atenolol 25 mg); for alcohol withdrawal phenomena: combination Adipex-P 37.5 one-half b.i.d. + fenfluramine 10 mg + Celexa 10 mg + Nutrimed three times daily + Librium 30 mg (three days) + atenolol 25 mg; for outcome of earlier trials for thalamic pain syndrome: before the protocol. The protocol: Person with sudden onset of numbness right side of body in Guyana 1973. […] Diagnosis was thalamic pain syndrome.
Other medical problems: borderline hypertension, obesity secondary to ETOH, hemorrhoids, and remote short-lived cigarette smoking.
At the time therapy started the patient was taking either hydrocodone/APAPE 7.5/500 as needed or Percocet. […] Therapy was started with Adipex-P 37.5 one-half p.o. bid., fenfluramine 10 mg p.o. q.a.m., Celexa 10 mg p.o. q.a.m., Nutrimed three times daily plus dinner for nutritional support (Nutrimed is a high protein, low carbohydrate semi-starvation fast), Librium 30 mg q.d. because of the discontinuation of alcohol, atenolol 25 mg q.a.m. Treatment started July 1999.
By mid-August, approximately five weeks into therapy, the patient was still on Nutrimed and Adipex but the fenfluramine was diminished to one-quarter of a pill or 5 mg. The atenolol was discontinued and the patient was encouraged to exercise.

The test system of a further data set is Patient one. The data set is described as follows: Protocol and results with patient one (cigarette smoking). Particulars: January 1998; Ionamin 15 mg + Prozac 10 mg MWF (+ Estratest, occasional Tranxene).
The mark [3] stands for this setting: July 1997, combination Ionamin 30 mg + Zoloft 25 + Pondimin.
Where [4] appears, read: November, Ionamin (15 then 30 mg) + Zoloft 25 since April 1996, before Pondimin, not decreasing, averaging 237 lb before.
Where [5] appears, read: current medication includes Ionamin 15 mg q.a.m. and Aricept one-quarter pill MWF.

Excerpt for Patient one: In addition, they were started on the moderate dose of the patch.

For `CC(C)(N)Cc1ccccc1` [Adipex-P, phentermine], in the data set with Patient three, the “side effect noted by patient” value is “some difficulty sleeping” and the patient-reported status entry is listed as “life had been transformed back towards its normal status”. Further, in the data set with Patient five, the body weight came out at 245 lb and the body weight reported by phone is approximately 240 lb. Also, in the data set with Patient four (Adipex-P 37.5 one-half + Celexa 10 mg twice weekly + Aricept one-quarter pill MWF, in the absence of fenfluramine), the “improvement (weight, fatigue)” value is “essentially no improvement”. Moreover, in the data set on Patient four (setting [3]), the body weight is 217 lb and the “cardiac output by echocardiography” value was “improved”. Moreover, the body weight in the data set with Patient four (setting [4]) amounted to 230 lb. In the data set on Patient four, the cardiac index remeasured result is “even more improved than previously” and the “body weight the next month” value worked out at 218. Moreover, in the data set on Patient six [1], the “weight lost on therapy to date” value is listed as “approximately 25 lb” and the overall condition entry is on record as “greatly improved”. In the data set on Patient six [1] (setting [5]), the body weight was determined as 161 lb and the “chronic fatigue remaining, of its original” value is approximately 20%. Also, in the data set with Patient two, the body weight was 127 lb, the weight reduction came out at 12.5% and the leg aches result was “resolution of their leg aches”. In the data set with Patient six [2], the body weight change entry is on record as “marked weight loss”, the energy level entry is recorded as “marked improvement in energy level”, the “pain as described by patient” value is “markedly diminished” and the alcohol withdrawal phenomena result is listed as “no withdrawal phenomena”. For the same compound, in the data set with Patient one, the body weight amounted to 119 lb and the smoking status result is given as “not smoking”.
Turning to `COc1cc2c(cc1OC)C(=O)C(CC1CCN(Cc3ccccc3)CC1)C2` (stereo not shown) [Aricept, donepezil], the “patient-reported status after addition” value in the data set with Patient six [1] (Aricept 2.5 mg Monday, Wednesday, Friday added August 1998 to ongoing therapy) is recorded as “felt much better”. The “weight lost on therapy to date” value in the data set on Patient six [1] is listed as “approximately 25 lb”. Besides, the body weight in the data set with Patient six [1] (setting [5]) is listed as 161 lb. For the same compound, in the data set with Patient two, the weight reduction was found to be 12.5% and the leg aches result was “resolution of their leg aches”.
Regarding `CN(C)CCCC1(c2ccc(F)cc2)OCc2cc(C#N)ccc21` (stereo not shown) [Celexa, citalopram], the body weight reported by phone with Patient five is approximately 240 lb. Further, in the data set on Patient two, the body weight is 127 lb and the weight reduction was 12.5%.
Regarding `O=C1NC(=O)C(c2ccccc2)(c2ccccc2)N1` [Dilantin], in the data set with Patient six [2], the “outcome of earlier trials for thalamic pain syndrome” value (from here on “outcome of earlier trials”) is reported as “no help”.
Same read-out and setting: the result for `CN(C)CCC=C1c2ccccc2CCc2ccccc21` [Elavil] reads “no help”.
Regarding `CNC1=Nc2ccc(Cl)cc2C(c2ccccc2)=[N+]([O-])C1` [Librium], in the data set on Patient six [2] (30 mg q.d., discontinued by day three), the side effect entry is “mild sleepiness”. The alcohol withdrawal phenomena result in the data set with Patient six [2] is “no withdrawal phenomena”.
Consider `NCC1(CC(=O)O)CCCCC1` [Neurontin], for which the “outcome of earlier trials” value in the data set on Patient six [2] is “no help”.
As for `CNCCC(Oc1ccc(C(F)(F)F)cc1)c1ccccc1` (stereo not shown) [Prozac, fluoxetine HCl], in the data set with Patient one, the body weight was 119 lb and the smoking status result was “not smoking”.
Turning to `NC(=O)N1c2ccccc2C=Cc2ccccc21` [Tegretol], in the data set with Patient six [2], the “outcome of earlier trials” value was “no help”.
As to `CN[C@H]1CC[C@@H](c2ccc(Cl)c(Cl)c2)c2ccccc21` [Zoloft, sertraline HCl], the body weight in the data set with Patient five is 245 lb. In addition, the “cardiac output by echocardiography” value with Patient four (setting [3]) is recorded as “improved”. Further, the body weight with Patient four (setting [4]) was determined as 230 lb. Moreover, in the data set with Patient six [1], the “weight lost on therapy to date” value is listed as “approximately 25 lb” and the overall condition result is “greatly improved”.
In the case of `CCNC(C)Cc1cccc(C(F)(F)F)c1` (stereo not shown) [fenfluramine], in the data set with Patient three, the “side effect noted by patient” value is “some difficulty sleeping” and the patient-reported status entry is reported as “life had been transformed back towards its normal status”. Further, the body weight with Patient five came to 245 lb. Also, in the data set with Patient four (setting [3]), the body weight is reported as 217 lb and the “cardiac output by echocardiography” value is “improved”. Moreover, in the data set on Patient four, the cardiac index remeasured result was “even more improved than previously” and the “body weight the next month” value is listed as 218. Moreover, in the data set on Patient six [1], the “weight lost on therapy to date” value is reported as “approximately 25 lb” and the overall condition result is recorded as “greatly improved”. Moreover, in the data set with Patient six [2], the body weight change result is “marked weight loss”, the energy level result is “marked improvement in energy level”, the “pain as described by patient” value is “markedly diminished” and the alcohol withdrawal phenomena result is “no withdrawal phenomena”.
With “hydrocodone/APAPE [hydrocodone/APAPE 7.5/500]”, the effect on pain entry with Patient six [2] (taken as needed at the time therapy started) was “not effective”.

The values above are taken from US6617361B2, “Behavior chemotherapy” (Be Able, LLC, priority 1999, dated 2003).
